# Data: ChEMBL document CHEMBL5523738, “Lipid Trolling to Optimize A3 Adenosine Receptor-Positive Allosteric Modulators (PAMs)” (J Med Chem, 2024)
# Calls of active or inactive are those of the source. The rule behind the calls is not given here.
# Legend:
# [1] = molecular target: T1, Adenosine receptor A3 (Homo sapiens) (UniProt P0DMS8); test: (§1) Antagonist activity at human A3 adenosine receptor transfected in HEK293 cell membranes assessed as rightward shift in 5-(2-chloro-6-((3-iodobenzyl)amino)-9H-purin-9-yl)-3,4-dihydroxy-N-methyltetrahydrofuran-2-carboxamide activation curve pretreated for 1 hr followed by agonist addition and measured after 2 hrs by liquid scintillation counting method; format: functional; conditions: Membrane, filed as antagonist, time 3.0 hrs
# T1 sequence (whole entry): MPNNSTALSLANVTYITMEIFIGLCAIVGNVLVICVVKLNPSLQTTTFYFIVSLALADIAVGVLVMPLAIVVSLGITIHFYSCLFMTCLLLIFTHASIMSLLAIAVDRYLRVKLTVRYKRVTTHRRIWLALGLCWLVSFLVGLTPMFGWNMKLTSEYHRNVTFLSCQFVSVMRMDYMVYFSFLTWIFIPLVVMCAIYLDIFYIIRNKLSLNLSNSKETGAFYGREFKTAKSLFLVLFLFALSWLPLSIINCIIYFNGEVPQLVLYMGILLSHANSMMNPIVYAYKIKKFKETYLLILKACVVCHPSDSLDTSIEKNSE
# [2] = molecular target: T1, Adenosine receptor A3 (Homo sapiens); test: (§2) Positive allosteric modulation of human A3 adenosine receptor transfected in HEK293 cell membranes assessed as slow down of [125I]I-AB-MECA dissociation rate at 10 uM preincubated with radioligand for 3 hrs followed by NECA and compound addition and measured after 60 mins by gamma counter method; conditions: Membrane, filed as positive allosteric modulator
# [3] = molecular target: T2, Adenosine receptor A3 (Mus musculus) (UniProt Q61618); test: as §2, with “full length mouse” for “human”, “upto 180” for “after 60”; conditions: Membrane, filed as positive allosteric modulator
# T2 sequence (whole entry): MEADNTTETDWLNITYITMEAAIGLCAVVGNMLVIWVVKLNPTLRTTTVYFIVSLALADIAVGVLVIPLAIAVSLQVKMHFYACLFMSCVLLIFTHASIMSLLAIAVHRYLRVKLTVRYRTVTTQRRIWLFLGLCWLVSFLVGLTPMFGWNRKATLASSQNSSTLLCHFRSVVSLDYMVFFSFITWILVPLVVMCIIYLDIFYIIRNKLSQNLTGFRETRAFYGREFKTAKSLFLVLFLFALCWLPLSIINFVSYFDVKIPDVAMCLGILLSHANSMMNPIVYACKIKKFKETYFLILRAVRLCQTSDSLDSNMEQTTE
# [4] = molecular target: T2, Adenosine receptor A3 (Mus musculus); test: Orthosteric antagonist activity at full length mouse A3 adenosine receptor transfected in HEK293 cell membranes assessed as inhibition of [125I]I-AB-MECA binding at equilibrium at 10 uM by gamma counter method; conditions: Membrane, filed as antagonist
# [5] = molecular target: T1, Adenosine receptor A3 (Homo sapiens); test: Orthosteric antagonist activity at human A3 adenosine receptor transfected in HEK293 cell membranes assessed as inhibition of [125I]I-AB-MECA binding at equilibrium at 10 uM measured for 18 hrs by gamma counter method; conditions: Membrane, filed as antagonist
# [6] = molecular target: T1, Adenosine receptor A3 (Homo sapiens); test: Positive allosteric modulation of human A3 adenosine receptor transfected in HEK293 cell membranes assessed as potentiation of 5-(2-chloro-6-((3-iodobenzyl)amino)-9H-purin-9-yl)-3,4-dihydroxy-N-methyltetrahydrofuran-2-carboxamide induced [35S]GTP-gammaS binding by measuring fold increase in agonist …; conditions: Membrane, filed as positive allosteric modulator, dose 1.0 µM, time 3.0 hrs
# [7] = molecular target: T1, Adenosine receptor A3 (Homo sapiens); test: as §1, with “curve at 10 uM” for “curve”; format: functional; conditions: Membrane, time 3.0 hrs
smiles,measurement,setting,value
Clc1ccc(Nc2nc3ccccc3c3nc(C4CCCCC4)sc23)cc1Cl,Activity,[1],Active
same,Activity,[2],Active
CCCC(CCC)c1nc2c(Nc3ccc(C#CCCCCN)cc3)nc3ccccc3c2[nH]1,Activity,[3],Active
same,Activity,[4],Active
Clc1ccc(Nc2nc3ccccc3c3nc(C4CCCCC4)oc23)cc1Cl,Activity,[1],Active
same,Activity,[5],Active
CCCC(CCC)c1nc2c(Nc3ccc(C#CCCN)cc3)nc3ccccc3c2[nH]1,Activity,[3],Active
CCCC(CCC)c1nc2c(Nc3ccc(C#CCCCCCCCCCN4CCCCC4)cc3)nc3ccccc3c2[nH]1,fold change (FC),[6],4
CCCC(CCC)c1nc2c(Sc3ccc(Cl)c(Cl)c3)nc3ccccc3c2[nH]1,Activity,[2],Active
same,Activity,[5],Active
CCCC(CCC)c1nc2c(Nc3ccc(/C=C/C(=O)NCCCCCCCCN)cc3)nc3ccccc3c2[nH]1,Activity,[2],Active
same,Activity,[5],Active
CCCC(CCC)c1nc2c([nH]1)c(Nc1ccc(C#CCCCCCCCCCCN)cc1)nc1ccccc12,fold change (FC),[6],2.5
same,Activity,[3],Active
same,Activity,[4],Active
CCCC(CCC)c1nc2c(Nc3ccc(C#CCCCCCCCCN=C(N)N)cc3)nc3ccccc3c2[nH]1,fold change (FC),[6],9.5
CCCC(CCC)c1nc2c(Nc3ccc(C#CCCCN)cc3)nc3ccccc3c2[nH]1,Activity,[3],Active
CCCC(CCC)c1nc2c(Nc3ccc(C#CCCCCCCCCCN4CCCC4)cc3)nc3ccccc3c2[nH]1,fold change (FC),[6],4
CN(c1ccc(Cl)c(Cl)c1)c1nc2ccccc2c2[nH]c(C3CCCCC3)nc12,Activity,[2],Active
CCCC(CCC)c1nc2c(Nc3ccc(C#CCN)cc3)nc3ccccc3c2[nH]1,Activity,[3],Active
CCCC(CCC)c1nc2c(Oc3ccc(Cl)c(Cl)c3)nc3ccccc3c2[nH]1,Activity,[2],Active
same,Activity,[5],Active
Clc1ccc(Nc2nc3ccccc3c3sc(C4CCCCC4)nc23)cc1Cl,Activity,[7],inactive
